Results as given in patent publication US11408038B2, “N-cadherin and FGFR1 and/or FGFR4 for use in predicting the response of patients to a lung cancer treatment and method and kit based on said use” (FUNDACIÓN DE INVESTIGACIÓN HOSPITAL 12 DE OCTUBRE, priority 2017, dated 2022).

Experiments:
A549 cell line = assay: Cell proliferation (growth curve) with FGFR inhibitors, A549; type: cell-based; settings: A549, endogenous FGFR1 and FGFR4, low N-cadherin; 0.5 μM or 1 μM
Experimental: (§1) 3,500 cells were seeded per well in 12-well plates. At 24 hours (day 0) the cells of the first point of the curve were fixed, and every 24-48 hours a new point of the curve was fixed and the medium of the rest was changed. The fixed plates were preserved with the cells in PBS at 4° C. until all the points of the curve were fixed. The plates were then stained with crystal violet for 20 minutes, washed and allowed to dry. Once dry, 20% acetic acid was added to each well to dilute the crystal violet, and the absorbance at 595 nm was measured on a VICTOR optical reading device (PerkinElmer). All absorbances were standardised in relation to the absorbance of day 0 of each experimental condition. Finally, this standardised value (growth relative to day 0 on the Y-axis) was plotted against time (days, X-axis).
(§2) To verify whether N-cadherin expression is decisive in the determination of the efficacy of FGFR inhibition in lung cancer treatment, the efficacy of two selective FGFR inhibitors, in terms of growth inhibition, was tested. For this purpose, cell lines with high endogenous expression of FGFR1 and/or FGFR4 and low expression of N-cadherin (A549 and H460), or with high endogenous expression of FGFR1 and/or FGFR4 and high expression of N-cadherin (H520 and H226) were selected. […]

H520 cell line = assay: Cell proliferation (growth curve) with FGFR inhibitors, H520; type: cell-based; settings: H520, endogenous FGFR1, FGFR4 and high N-cadherin; 0.5 μM or 1 μM
Experimental: as §1, §2

H226 cell line = assay: Cell proliferation (growth curve) with FGFR inhibitors, H226; type: cell-based; settings: H226, endogenous FGFR1 and high N-cadherin; 0.5 μM or 1 μM
Experimental: as §1, §2

H460 cell line = assay: Cell proliferation (growth curve) with FGFR inhibitors, H460; type: cell-based; settings: H460, endogenous FGFR1, low N-cadherin; 0.5 μM or 1 μM
Experimental: as §1, §2

[1] = test system: mesenchymal bladder cancer cell lines; settings: cited from earlier work
lung cancer cell lines = assay: In vitro experiments with the two FGFR inhibitors, growth inhibition overall; type: cell-based; settings: BGJ398 versus AZD4547
Experimental: To verify whether N-cadherin expression is decisive in the determination of the efficacy of FGFR inhibition in lung cancer treatment, the efficacy of two selective FGFR inhibitors, in terms of growth inhibition, was tested. For this purpose, cell lines with high endogenous expression of FGFR1 and/or FGFR4 and low expression of N-cadherin (A549 and H460), or with high endogenous expression of FGFR1 and/or FGFR4 and high expression of N-cadherin (H520 and H226) were selected. In these lines, an analysis was performed on the effect on cell proliferation of two selective FGFR inhibitors: BGJ398 and AZD4547 (SELLECKCHEM, Refs. S2183 and S2801 respectively) with regard to time.

[2] = test system: TP96 epidermoid carcinoma PDX (high FGFR1, FGFR4 and N-cadherin)
Experimental: (§3) Tumours from patients with non-small cell lung cancer, covered with Matrigel (BD #356234) are implanted in the flank of immunocompromised nude mice of 5-6 weeks of age, under anaesthesia by isofluorane inhalation and under analgesia by buprenorphine. To perform the implant, a small cut is made in the flank of the mouse under anaesthesia and analgesia and the tumour fragment is inserted, about 100-150 mm^3 in volume.
(§4) The size of the tumours generated by the xenografts was measured weekly with a measuring gauge. The shortest and longest length of each tumour was measured and the tumour volume was calculated with the formula: 0.5×(longest dimension)×(shortest dimension)^2.
For this purpose, the model of interest was implanted in 4-6 mice per treatment group as stated above, and the growth of the tumours generated was monitored. […] Once the groups were established, the treatments were commenced, lasting between 3 and 5 weeks, depending on the growth rate of each model and on the drug or drugs employed.
The concentration of AZD4547 employed was 7.5 mg/kg/day, administered from Monday to Friday. The route of administration of the drug was oral. At the end of the treatment, the mice were sacrificed and the tumours processed and stored as stated above.
(§5) The growth of the tumours is shown in graphs of tumour growth against time, where each measurement of tumour volume is relativised with the initial measurement after commencing the treatment, and the median and mean error are shown for each treatment group. The variation in tumour volume is represented with bar graphs which show the increase (or decrease), expressed as a percentage, of the volume of each tumour with regard to the initial volume in each treatment group

[3] = test system: FGFR-related signalling pathways; assay: Western blot of FGFR-related signalling pathways in treated PDX TP60; type: in vivo, mice; settings: TP60 tumours, low N-cadherin
Experimental: (§6) The total proteins of the tumours from xenografts were obtained by adding the lysis buffer to the previously pulverized tissue fragment in a mortar pre-cooled with liquid nitrogen, to avoid thawing the fragment; it was then incubated on ice for 2 hours, stirring every 10 minutes, and the volume was collected in 2 mL tubes that were centrifuged at 15,000×g for 10 minutes at 4° C. to eliminate the remnants of undissolved tissue, and the supernatant was stored at −80° C. The extraction buffer and the quantification method used were the same as in the case of protein extraction from cell lines.
Protein immunodetection was performed according to a standard protocol on PDVF membranes (GE Healthcare). The proteins were separated on SDS polyacrylamide gels using a 1X Tris HCl 0.13 M electrophoresis buffer, 0.95 M glycine, 0.5% SDS, and were transferred to PDVF membranes, using a Trans-Blot Turbo kit (BioRad). The transfer was performed at 400 mA for 3 hours in transfer buffer (0.025 M TrisHCl, 0.2 M glycine, 20% methanol). The membranes were blocked for 1 hour under stirring with the blocking buffer (TBS, 0.1% Tween20 and 1% BSA). […] The detection was performed using a chemiluminescent reaction (Clarity ECL, Biorad) and visualization using luminescence detection equipment (ChemiDoc, BioRad). […]

[4] = test system: TP13 epidermoid carcinoma PDX (low N-cadherin); assay: PDX treatment, tumour growth, model TP13; type: in vivo, mice; settings: 7.5 mg/kg/day oral, Monday to Friday
Experimental: as §3, §4
(§7) For this purpose, the model of interest was implanted in 4-6 mice per treatment group as stated above, and the growth of the tumours generated was monitored. […]
as §5

[5] = test system: FGFR-related signalling pathways (pSTAT3, pAKT, p-p42/p44); assay: Western blot of FGFR-related signalling pathways in treated PDX TP91; type: in vivo, mice; settings: TP91 tumours, high N-cadherin
Experimental: as §6
Protein immunodetection was performed according to a standard protocol on PDVF membranes (GE Healthcare). The proteins were separated on SDS polyacrylamide gels using a 1X Tris HCl 0.13 M electrophoresis buffer, 0.95 M glycine, 0.5% SDS, and were transferred to PDVF membranes, using a Trans-Blot Turbo kit (BioRad). The transfer was performed at 400 mA for 3 hours in transfer buffer (0.025 M TrisHCl, 0.2 M glycine, 20% methanol). The membranes were blocked for 1 hour under stirring with the blocking buffer (TBS, 0.1% Tween20 and 1% BSA). Subsequently, the membranes were incubated with the appropriate dilution of primary antibody for 16 hours at 4° C. After this incubation, the membranes were washed with washing buffer (TBS 0.1% Tween-20) and incubated with a 1:5,000 dilution of the appropriate peroxidase-conjugated secondary antibody, for one hour at ambient temperature. The detection was performed using a chemiluminescent reaction (Clarity ECL, Biorad) and visualization using luminescence detection equipment (ChemiDoc, BioRad).
The route of administration of the drug was oral.

[6] = test system: TP114 epidermoid carcinoma PDX (high N-cadherin); assay: PDX treatment, tumour growth, model TP114; type: in vivo, mice; settings: 7.5 mg/kg/day oral
Experimental: as §3, §4, §7, §5

[7] = test system: TP60 adenocarcinoma PDX (low N-cadherin); assay: PDX treatment, tumour growth, model TP60; type: in vivo, mice; settings: 7.5 mg/kg/day oral, Monday to Friday
Experimental: as §3, §4, §7, §5

[8] = test system: TP91 adenocarcinoma PDX (high N-cadherin); assay: PDX treatment, tumour growth, model TP91; type: in vivo, mice; settings: 7.5 mg/kg/day oral
Experimental: as §3, §4, §7, §5

Compound	effect on cell growth (relative growth with regard to time) (A549 cell line)	effect on cell growth (relative growth with regard to time) (H520 cell line)	effect on cell growth (relative growth with regard to time) (H226 cell line)	effect on cell growth (relative growth with regard to time) (H460 cell line)	responsiveness of mesenchymal versus epithelial bladder cancer cell lines [1]	efficacy in the in vitro experiments, compared between the two inhibitors (lung cancer cell lines)	average reduction in volume with regard to the control condition ([2]; TP96, high FGFR1, FGFR4 and N-cadherin, 7.5 mg/kg/day oral, Monday to Friday) [%]	complete tumour regression, fraction of the tumours treated ([2]; TP96, 7.5 mg/kg/day oral)	response to the treatment ([2]; TP96, partial response = average reduction in tumour volume of 50% or greater vs volume at commencement of treatment)	activation of the FGFR-related signalling pathways studied [3]	effect on tumour growth [4]	levels of pAKT [5]	levels of pSTAT3 [5]	p-p42/p44 activation [5]	average reduction in volume with regard to the control condition ([6]; TP114, high N-cadherin, Monday to Friday) [%]	complete tumour regression, fraction of the tumours treated ([6]; TP114)	effect on tumour growth [7]	average reduction in volume with regard to the control condition ([8]; TP91, high N-cadherin, Monday to Friday) [%]	complete tumour regression, fraction of the tumours treated ([8]; TP91)
CCN1CCN(c2ccc(Nc3cc(N(C)C(=O)Nc4c(Cl)c(OC)cc(OC)c4Cl)ncn3)cc2)CC1 [BGJ398]	do not exert a significant effect	reduce the growth	reduce the growth	do not exert a significant effect															
CN1CCN(c2ccc3nc(-c4c(N)c5c(F)cccc5[nH]c4=O)[nH]c3c2)CC1 [TI-258]					more responsive														
AZD4547	do not exert a significant effect	reduce the growth	reduce the growth	do not exert a significant effect		greatest efficacy	1.4	⅖	partial response	does not alter the activation	no effect	reduction	reduction	modest reduction	25.5	⅖	no effect	14.4	⅕
